{
  "source": "patent US12516087B2",
  "about": "“Methods and compositions comprising therapeutic gamma peptide nucleic acid-based molecules” (UNIVERSITY OF IOWA RESEARCH FOUNDATION, priority 2022, dated 2026)",
  "system": "endothelial cells (HUVECs)",
  "assay": "Binding of TAMRA-labelled γPNA to cells (fluorescence intensity)",
  "assay_type": "cell-based, human",
  "conditions": "30 minutes incubation, fluorescence intensity normalized to protein",
  "protocol": "FIGS. 11A and 11B. […] The cells were incubated with TAMRA-e-γP-122-I or TAMRA-γP-122-I for 30 minutes, washed three times, lysed, and the fluorescence intensity was measured and normalized to protein. RFI: Rhodamine (5-TAMRA) fluorescence intensity (561/600).\nThe inventors generated an endothelial cell targeting version of the disclosed γ-PNA inhibitors of miR-122 by fusing the peptide VHPK (SEQ ID NO: 4) to the γ-PNAs of the instant disclosure (“VHPK-γ-PNA fusion”). VHPK binds to vascular cell adhesion molecule 1 (VCAM1) which is highly expressed on the surface of endothelial cells.",
  "note": "No end group written: not given here.",
  "data": [
    {"substance": "TAMRA-e-γP-122-I: endothelial cell targeting γ-PNA miR-122 inhibitor fused to peptide VHPK (SEQ ID NO: 4), TAMRA-labelled (VHPKQHRQQSKQC; also: fused to γ-PNA miR-122 inhibitor, TAMRA-labelled, place not given here)", "values": [
      {"measurement": "binding to endothelial cells (HUVECs) versus untagged γ-PNA", "value": "Increased binding"},
      {"measurement": "binding to endothelial cells versus HEK-293 cells", "value": "increased binding to endothelial cells as compared to human embryonic kidney (HEK-293) cells"},
      {"measurement": "binding to endothelial cells (HUVECs) versus untagged γ-PNA", "setting": "listed as VHPK-γ-PNA fusion", "value": "increased binding"}
    ]}
  ]
}
